The values that follow come from ChEMBL document CHEMBL1817626, “The structure-activity relationship of urea derivatives as anti-tuberculosis agents” (Bioorg Med Chem, 2011).

SMILES strings stand for the structures. ≈ marks a conversion by molar mass, not a printed value. Calls of active or inactive are those of the source. The calls are words filed in the database; no cut-off is given here.

The subject of experiment [1] is Escherichia coli. The experiment is described as follows: Antibacterial activity against Escherichia coli […] TolC. It is filed as functional.
The test system of a further experiment is Klebsiella pneumoniae. The experiment is described as follows: Antibacterial activity against Klebsiella pneumoniae. Type of experiment: functional.
For experiment [2], the target named is T1, Bifunctional epoxide hydrolase 2 (Homo sapiens, UniProt P34913).
T1 sequence (P34913 whole entry): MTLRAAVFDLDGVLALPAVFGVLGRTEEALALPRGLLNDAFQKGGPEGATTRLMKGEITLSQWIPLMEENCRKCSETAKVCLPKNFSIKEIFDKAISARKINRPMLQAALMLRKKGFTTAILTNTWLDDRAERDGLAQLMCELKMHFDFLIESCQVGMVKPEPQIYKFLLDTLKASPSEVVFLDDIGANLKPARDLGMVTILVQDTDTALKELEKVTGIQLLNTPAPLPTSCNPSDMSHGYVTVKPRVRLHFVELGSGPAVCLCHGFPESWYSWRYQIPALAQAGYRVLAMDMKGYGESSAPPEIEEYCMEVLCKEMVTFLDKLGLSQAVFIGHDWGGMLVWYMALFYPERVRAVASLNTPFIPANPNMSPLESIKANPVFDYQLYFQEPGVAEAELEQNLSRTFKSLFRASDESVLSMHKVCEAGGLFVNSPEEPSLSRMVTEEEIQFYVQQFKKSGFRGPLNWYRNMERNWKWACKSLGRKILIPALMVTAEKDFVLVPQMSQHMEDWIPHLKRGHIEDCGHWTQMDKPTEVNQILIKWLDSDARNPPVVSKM
The experiment is described as follows: Inhibition of human recombinant soluble epoxide hydrolase using CMNPC as substrate after 10 mins by fluorescent assay.

The test system of another experiment is Enterococcus faecium. The experiment can be described thus: Antibacterial activity against Enterococcus faecium. It is filed as functional.
Experiment [3] has as its target T2, Epoxide hydrolase B (Mycobacterium tuberculosis) (UniProt P95276).
T2 sequence (whole entry): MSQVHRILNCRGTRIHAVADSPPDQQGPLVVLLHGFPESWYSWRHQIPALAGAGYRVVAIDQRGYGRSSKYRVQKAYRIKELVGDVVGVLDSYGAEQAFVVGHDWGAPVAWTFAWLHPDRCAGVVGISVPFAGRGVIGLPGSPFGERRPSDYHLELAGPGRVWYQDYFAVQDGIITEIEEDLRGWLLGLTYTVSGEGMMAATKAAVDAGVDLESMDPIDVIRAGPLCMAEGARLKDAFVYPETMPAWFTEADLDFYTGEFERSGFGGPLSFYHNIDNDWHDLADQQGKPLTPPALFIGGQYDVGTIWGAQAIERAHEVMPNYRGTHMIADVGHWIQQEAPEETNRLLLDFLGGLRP
The experiment is described as follows: Inhibition of Mycobacterium tuberculosis recombinant EphB expressed in Escherichia coli BL21 using CMNPC as substrate at 10 nM after 30 mins by fluorescent assay relative to control.

Experiment [4] addresses T3, Hydrolase, alpha/beta hydrolase fold family (Mycobacterium tuberculosis) (UniProt O69638).
T3 sequence (whole entry): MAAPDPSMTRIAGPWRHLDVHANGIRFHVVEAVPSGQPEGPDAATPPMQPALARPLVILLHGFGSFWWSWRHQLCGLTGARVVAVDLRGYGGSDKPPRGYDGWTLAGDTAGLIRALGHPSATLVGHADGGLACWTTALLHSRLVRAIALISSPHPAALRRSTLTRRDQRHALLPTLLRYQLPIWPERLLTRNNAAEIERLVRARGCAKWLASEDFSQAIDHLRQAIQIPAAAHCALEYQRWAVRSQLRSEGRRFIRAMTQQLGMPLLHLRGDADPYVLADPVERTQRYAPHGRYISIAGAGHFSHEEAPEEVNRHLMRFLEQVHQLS
The experiment is described as follows: Inhibition of Mycobacterium tuberculosis recombinant EphE expressed in Escherichia coli BL21 using CMNPC as substrate at 10 nM after 30 mins by fluorescent assay relative to control.

The test system of the next experiment is Bacillus anthracis. The experiment is described as follows: microbe, parasite or virus in culture.
Experiment [5] has as its system Escherichia coli. The experiment can be described thus: Antibacterial activity against Escherichia coli K12. As to conditions: K-12. Type of experiment: functional.
The subject of another experiment is Staphylococcus aureus. The experiment can be described thus: Antibacterial activity against Staphylococcus aureus. It is filed as functional.
The subject of a further experiment is Enterococcus faecalis. The experiment is described as follows: Antibacterial activity against Enterococcus faecalis. It is filed as functional.
For the next experiment, the system named is Pseudomonas aeruginosa. The experiment is described as follows: Antibacterial activity against Pseudomonas aeruginosa. Type of experiment: functional.
The test system of another experiment is Vero. The experiment is described as follows: Cytotoxicity against african green monkey Vero cells after 72 hrs by MTT assay. Type of experiment: cell-based. As to conditions: Chlorocebus sabaeus. A general note: Tetrazolium assays rely on reduction of a dye to a coloured formazan, in cell work by metabolically active cells.
Experiment [6] relates to Mycobacterium tuberculosis. The experiment can be described thus: microbe, parasite or virus in culture. As to conditions: H37Rv, 168 h.
The subject of experiment [7] is Mycolicibacterium smegmatis. The experiment is described as follows: microbe, parasite or virus in culture. As to conditions: str. MC2 155, 168 h.

The term IC50 denotes the concentration that gives 50% inhibition. In general, inhibition refers to how much of the control response was suppressed. On to `O=C(NCCc1ccccc1)NC1C2CC3CC(C2)CC1C3` (stereo not drawn), for which the MIC with Escherichia coli [1], in the experiment on Klebsiella pneumoniae, in the experiment with Enterococcus faecium, in the experiment with Bacillus anthracis, against Escherichia coli [5] and with Staphylococcus aureus was over 200 µg/mL in each case. Moreover, the MIC in the experiment on Enterococcus faecalis is over 200 µg/mL; in the experiment with Pseudomonas aeruginosa, over 200 µg/mL; in experiment [6], 0.01 µg/mL (≈ 0.0335 µM); in [7], 25 µg/mL (≈ 83.8 µM). The IC50 amounted to 4.5 nM in experiment [2] and 30.2 µg/mL (≈ 101 µM) in the experiment on Vero. For the same compound, the values for the inhibition in experiment [3] and in experiment [4] were 34.1% and 87.9%, respectively.
For `CC(CCc1ccccc1)NC(=O)Nc1cccc(C(F)(F)F)c1F` (stereo not drawn), the MIC with Escherichia coli [1] is 6.25 µg/mL (≈ 17.6 µM); against Klebsiella pneumoniae it was over 200 µg/mL; with Enterococcus faecium it was 100 µg/mL (≈ 282 µM); against Bacillus anthracis, over 200 µg/mL; against Escherichia coli [5], over 200 µg/mL; against Staphylococcus aureus, over 200 µg/mL. Also, the MIC in the experiment with Enterococcus faecalis was 100 µg/mL (≈ 282 µM); in the experiment with Pseudomonas aeruginosa it was over 200 µg/mL; in experiment [6] it was 1.6 µg/mL (≈ 4.52 µM); in experiment [7], 6.25 µg/mL (≈ 17.6 µM). Further, the IC50 in experiment [2] came to 1.9 nM; with Vero it was 38.5 µg/mL (≈ 109 µM). The inhibition entry in experiment [3] is “inactive”. In addition, the inhibition in experiment [4] is 63.9%.
`CCCNC(=O)NC1C2CC3CC(C2)CC1C3` (stereo not drawn): the MIC in the experiment with Escherichia coli [1], against Klebsiella pneumoniae, against Enterococcus faecium, in the experiment with Bacillus anthracis, in the experiment on Escherichia coli [5] and in the experiment with Staphylococcus aureus was over 200 µg/mL throughout. The MIC is over 200 µg/mL against Enterococcus faecalis, over 200 µg/mL in the experiment with Pseudomonas aeruginosa, 12.5 µg/mL (≈ 52.9 µM) in experiment [6] and 200 µg/mL (≈ 846 µM) in experiment [7]. Also, the values for the IC50 (in [2]; with Vero) were 61.4 nM and 171 µg/mL (≈ 723 µM), respectively. Besides, the inhibition in experiment [3] was 51.9%; in experiment [4], 73.6%.
`Cc1ccc(NC(=O)NCC23CC4CC(CC(C4)C2)C3)cc1Cl`: the MIC in the experiment with Escherichia coli [1], against Klebsiella pneumoniae, in the experiment on Enterococcus faecium, in the experiment on Bacillus anthracis, against Escherichia coli [5] and in the experiment with Staphylococcus aureus was over 200 µg/mL throughout. The MIC in the experiment with Enterococcus faecalis is over 200 µg/mL; against Pseudomonas aeruginosa, over 200 µg/mL; in experiment [6], 0.02 µg/mL (≈ 0.0601 µM); in experiment [7], 0.8 µg/mL (≈ 2.4 µM). The IC50 was 0.4 nM in [2] and 4.34 µg/mL (≈ 13 µM) in the experiment with Vero. For the same compound, the inhibition in experiment [3] amounted to 33.9%; in experiment [4] it was 94.1%.
Regarding `O=C(NCc1cccc(Cl)c1)Nc1cccc(C(F)(F)F)c1F`, the MIC in the experiment on Escherichia coli [1], with Klebsiella pneumoniae, with Enterococcus faecium, against Bacillus anthracis, in the experiment with Escherichia coli [5] and against Staphylococcus aureus was over 200 µg/mL each time. The MIC against Enterococcus faecalis is over 200 µg/mL; in the experiment with Pseudomonas aeruginosa, over 200 µg/mL; in [6], 1.6 µg/mL (≈ 4.61 µM); in experiment [7] it was over 200 µg/mL. For the same compound, the IC50 is 3.7 nM in [2] and 193 µg/mL (≈ 557 µM) in the experiment with Vero. For the same compound, the inhibition in [3] amounted to 16.6%; in [4], 15.5%.
Take `Cc1c(Cl)cccc1NC(=O)NC1C2CC3CC(C2)CC1C3` (stereo not drawn): the MIC against Escherichia coli [1], against Klebsiella pneumoniae, with Enterococcus faecium, against Bacillus anthracis, in the experiment with Escherichia coli [5] and in the experiment with Staphylococcus aureus was over 200 µg/mL in each case. Further, the MIC was over 200 µg/mL against Enterococcus faecalis, over 200 µg/mL against Pseudomonas aeruginosa, 1.6 µg/mL (≈ 5.02 µM) in experiment [6] and over 100 µg/mL in [7]. In addition, the IC50 was 4.5 nM in experiment [2] and 26.4 µg/mL (≈ 82.8 µM) in the experiment with Vero. In addition, the inhibition in [3] came out at 9.8%; in experiment [4] it was 58.3%.
Take `O=C(NC1CCCCC1)NC1C2CC3CC(C2)CC1C3` (stereo not drawn): the MIC against Escherichia coli [1], against Klebsiella pneumoniae, with Enterococcus faecium, against Bacillus anthracis, in the experiment on Escherichia coli [5] and against Staphylococcus aureus was over 200 µg/mL throughout. The MIC is over 200 µg/mL in the experiment with Enterococcus faecalis, over 200 µg/mL in the experiment on Pseudomonas aeruginosa, 10 µg/mL (≈ 36.2 µM) in [6] and over 200 µg/mL in [7]. For the same compound, the results for the IC50 (in experiment [2]; in the experiment with Vero) were 0.4 nM and 25 µg/mL (≈ 90.4 µM), respectively. Also, the inhibition in experiment [3] was found to be 11.6%; in [4], 70.2%.
